We go through 30 molecules from ChEMBL document CHEMBL5579859, “Discovery of novel indazole derivatives as second-generation TRK inhibitors” (Eur J Med Chem, 2024).

The target in assay [1] is High affinity nerve growth factor receptor (Homo sapiens, UniProt P04629, G595R). The assay is described as follows: Inhibition of TRKA G595R mutant (unknown origin) using TK as substrate incubated for 30 mins in presence of ATP by HTRF assay. Background: Time-resolved FRET reads energy transfer from a long-lived donor to a nearby acceptor.
For assay [2], the target named is NT-3 growth factor receptor (Homo sapiens, UniProt Q16288). The assay is described as follows: Inhibition of TRKC (unknown origin) using TK as substrate incubated for 40 mins in presence of ATP by HTRF assay.
Assay [3] addresses High affinity nerve growth factor receptor (Homo sapiens, UniProt P04629). The assay is described as follows: Inhibition of TRKA (unknown origin) using TK as substrate incubated for 30 mins in presence of ATP by HTRF assay.
Assay [4] addresses High affinity nerve growth factor receptor (Homo sapiens, UniProt P04629, F589L). The assay is described as follows: Inhibition of TRKA F589L mutant (unknown origin) using TK as substrate incubated for 30 mins in presence of ATP by HTRF assay.
The target of assay [5] is High affinity nerve growth factor receptor (Homo sapiens, UniProt P04629, G667C). The assay is described as follows: Inhibition of TRKA G667C mutant (unknown origin) using TK as substrate incubated for 30 mins in presence of ATP by HTRF assay.
For assay [6], the system named is BaF3. The assay is described as follows: cells. The settings on record: Mus musculus, BaF3, 72 h.
The subject of a further assay is MCF7. The assay is described as follows: cells. As to conditions: Homo sapiens, MCF7, 72 h.
The subject of assay [7] is BaF3. The assay is described as follows: cells. The settings on record: Mus musculus, BaF3, 72 h. This is another data set of the same source.
Description: Antiproliferative activity against mouse BaF3 cells expressing TRKA G595R mutant incubated for 72 hrs by CCK8 assay
Another assay has as its system KM12. The assay is described as follows: cells. As to conditions: Homo sapiens, KM12, 72 h.

Chain of High affinity nerve growth factor receptor (Homo sapiens, UniProt P04629, F589L) (P04629 33-796 F589L limits assumed): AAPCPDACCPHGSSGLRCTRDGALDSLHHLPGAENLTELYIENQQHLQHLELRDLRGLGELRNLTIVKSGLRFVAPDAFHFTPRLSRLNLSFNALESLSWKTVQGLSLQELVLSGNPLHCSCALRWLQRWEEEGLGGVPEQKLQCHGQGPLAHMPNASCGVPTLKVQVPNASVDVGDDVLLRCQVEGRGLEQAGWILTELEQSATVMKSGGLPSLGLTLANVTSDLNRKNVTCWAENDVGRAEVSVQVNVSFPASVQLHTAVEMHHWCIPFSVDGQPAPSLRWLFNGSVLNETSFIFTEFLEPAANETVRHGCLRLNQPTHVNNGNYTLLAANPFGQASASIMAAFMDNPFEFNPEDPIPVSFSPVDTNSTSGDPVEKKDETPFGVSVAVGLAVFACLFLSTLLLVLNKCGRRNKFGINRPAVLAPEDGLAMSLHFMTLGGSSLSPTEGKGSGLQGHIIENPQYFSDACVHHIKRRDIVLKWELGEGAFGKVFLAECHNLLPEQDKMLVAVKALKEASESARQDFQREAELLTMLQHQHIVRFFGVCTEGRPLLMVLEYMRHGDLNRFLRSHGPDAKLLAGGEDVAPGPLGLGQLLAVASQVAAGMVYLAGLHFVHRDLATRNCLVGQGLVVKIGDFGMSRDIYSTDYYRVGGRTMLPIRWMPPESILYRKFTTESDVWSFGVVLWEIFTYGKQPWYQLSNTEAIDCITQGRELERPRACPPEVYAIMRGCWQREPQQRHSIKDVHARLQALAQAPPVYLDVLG
Chain of High affinity nerve growth factor receptor (Homo sapiens, UniProt P04629) (P04629 whole entry): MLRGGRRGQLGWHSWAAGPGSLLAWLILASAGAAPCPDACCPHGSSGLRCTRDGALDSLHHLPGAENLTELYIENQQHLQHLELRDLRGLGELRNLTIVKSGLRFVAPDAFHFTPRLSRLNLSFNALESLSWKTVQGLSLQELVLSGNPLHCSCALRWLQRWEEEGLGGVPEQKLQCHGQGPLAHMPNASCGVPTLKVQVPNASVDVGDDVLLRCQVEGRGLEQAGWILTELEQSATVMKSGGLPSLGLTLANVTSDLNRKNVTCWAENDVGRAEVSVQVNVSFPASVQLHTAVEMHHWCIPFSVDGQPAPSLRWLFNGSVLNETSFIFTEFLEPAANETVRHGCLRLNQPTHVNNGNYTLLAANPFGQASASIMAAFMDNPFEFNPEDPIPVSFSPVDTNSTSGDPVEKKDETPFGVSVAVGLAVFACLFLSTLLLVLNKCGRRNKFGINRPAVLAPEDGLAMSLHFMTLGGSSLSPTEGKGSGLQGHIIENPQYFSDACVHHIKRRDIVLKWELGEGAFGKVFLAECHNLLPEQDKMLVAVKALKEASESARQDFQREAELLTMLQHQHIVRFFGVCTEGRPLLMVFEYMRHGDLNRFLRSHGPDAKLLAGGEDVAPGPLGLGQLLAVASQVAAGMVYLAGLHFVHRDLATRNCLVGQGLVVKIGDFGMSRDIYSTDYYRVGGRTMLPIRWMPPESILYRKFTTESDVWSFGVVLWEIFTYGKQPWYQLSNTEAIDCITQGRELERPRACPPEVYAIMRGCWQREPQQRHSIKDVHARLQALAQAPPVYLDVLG
Chain of High affinity nerve growth factor receptor (Homo sapiens, UniProt P04629, G595R) (P04629 33-796 G595R limits assumed): as the sequence (P04629 33-796 F589L limits assumed) above, with L557F, G563R counted along it
Chain of High affinity nerve growth factor receptor (Homo sapiens, UniProt P04629, G667C) (P04629 33-796 G667C limits assumed): as the sequence (P04629 33-796 F589L limits assumed) above, with L557F, G635C counted along it
Chain of NT-3 growth factor receptor (Q16288 whole entry): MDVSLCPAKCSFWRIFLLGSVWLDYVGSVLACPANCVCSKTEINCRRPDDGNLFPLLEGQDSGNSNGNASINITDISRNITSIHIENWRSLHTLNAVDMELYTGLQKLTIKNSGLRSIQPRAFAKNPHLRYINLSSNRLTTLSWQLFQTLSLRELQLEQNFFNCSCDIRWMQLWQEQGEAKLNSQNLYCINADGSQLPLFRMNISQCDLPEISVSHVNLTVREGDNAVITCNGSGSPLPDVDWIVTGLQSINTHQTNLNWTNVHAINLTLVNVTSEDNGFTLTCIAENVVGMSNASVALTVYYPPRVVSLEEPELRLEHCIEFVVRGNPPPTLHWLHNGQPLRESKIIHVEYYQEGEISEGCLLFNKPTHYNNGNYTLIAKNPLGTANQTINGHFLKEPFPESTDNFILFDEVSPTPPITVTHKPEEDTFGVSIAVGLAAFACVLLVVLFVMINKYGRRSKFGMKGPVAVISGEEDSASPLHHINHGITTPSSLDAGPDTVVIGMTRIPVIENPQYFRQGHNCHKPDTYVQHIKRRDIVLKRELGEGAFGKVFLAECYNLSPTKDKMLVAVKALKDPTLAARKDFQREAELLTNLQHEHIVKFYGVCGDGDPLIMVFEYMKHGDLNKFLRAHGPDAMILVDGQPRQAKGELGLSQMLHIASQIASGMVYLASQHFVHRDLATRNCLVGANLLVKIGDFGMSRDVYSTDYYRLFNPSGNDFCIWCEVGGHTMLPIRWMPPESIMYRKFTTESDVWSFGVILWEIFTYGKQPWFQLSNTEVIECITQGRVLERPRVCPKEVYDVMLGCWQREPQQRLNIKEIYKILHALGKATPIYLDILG
Description for KM12: Antiproliferative activity against human KM12 cells incubated for 72 hrs by CCK8 assay
Description for MCF7: Antiproliferative activity against human MCF7 cells incubated for 72 hrs by CCK8 assay

With `COc1ccc(F)cc1CNc1ccc2[nH]nc(C#N)c2c1`, the IC50 (in general, the concentration that gives 50% inhibition) in [1] came out at 170 nM.
Take `N#Cc1n[nH]c2ccc(NCc3cc(F)ccc3OCC(F)F)cc12`: the IC50 in [2] turned out to be 3 nM; in assay [3] it was 32 nM; in assay [4], 10 nM; in assay [1], 30 nM; in assay [5], 1200 nM.
Regarding `COc1ccc(F)cc1CNc1ccc2[nH]nc(C(=O)NO)c2c1`, in assay [1], the IC50 turned out to be 4830 nM.
With `CNC(=O)c1n[nH]c2ccc(NCc3cc(F)ccc3OCCO)cc12`, the IC50 in assay [1] came to 1170 nM.
On the same count and under the same terms, as for `CNC(=O)c1n[nH]c2ccc(NCc3cc(F)ccc3OC3CCOCC3)cc12`, the figure is 290 nM; as for `COc1ccc(F)cc1CNc1ccc2[nH]nc(-n3cc(F)cn3)c2c1`, 350 nM.
On to `CNC(=O)c1n[nH]c2ccc(NCc3cc(F)ccc3P(C)(C)=O)cc12`, for which, in [1], the IC50 came out at 5580 nM.
On the same count and under the same terms, as for `CNC(=O)c1n[nH]c2ccc(NCc3cc(F)ccc3OC(C)C)cc12`, the figure is 240 nM.
The same measure, in the same setting: as for `CNC(=O)c1n[nH]c2ccc(NCc3cc(F)ccc3OCC(F)(F)F)cc12`, the figure is 140 nM.
Still for that read-out and setting: as for `CNC(=O)c1n[nH]c2ccc(NCc3cc(F)ccc3OC3CCOC3)cc12` (stereo unspecified), the figure is 210 nM.
For the molecule `COc1ccc(F)cc1CNc1ccc2[nH]nc(-n3cnc(C(F)(F)F)c3)c2c1`, the IC50 in assay [1] came to 580 nM.
On the same count and under the same terms, as for `COc1ccc(F)cc1CNc1ccc2[nH]nc(C(N)=O)c2c1`, the figure is 670 nM; as for `COc1ccc(F)cc1CNc1ccc2[nH]nc(-n3cccn3)c2c1`, 550 nM; as for `COc1ccc(F)cc1CNc1ccc2[nH]nc(C(=O)NCC(F)F)c2c1`, 8590 nM.
Still for that read-out and setting: as for `CNC(=O)c1n[nH]c2ccc(NCc3cc(F)ccc3OCCF)cc12`, the figure is 200 nM; as for `COc1ccc(F)cc1CNc1ccc2[nH]nc(-c3ccc(F)cc3)c2c1`, 1350 nM; as for `CNC(=O)c1n[nH]c2ccc(NCc3cc(F)ccc3S(C)(=O)=O)cc12`, 1120 nM.
On to `Fc1ccc(OCC(F)F)c(CNc2ccc3[nH]nc(-n4ccnn4)c3c2)c1`, for which the IC50 in the assay with BaF3 [6] was 136 nM; in [2], 4 nM; with MCF7, > 10000 nM; with BaF3 [7], 132 nM; in [3], 3 nM; in assay [4], 2 nM. Besides, the figures for the IC50 (in [1]; in the assay with KM12; in [5]) were 63 nM, 9.8 nM and 61 nM, respectively.
For the molecule `Fc1ccc(OCC(F)F)c(CNc2ccc3[nH]nc(-n4cncn4)c3c2)c1`, the IC50 with BaF3 [6] was 64.1 nM; in assay [2], 2 nM; in the assay with MCF7, > 10000 nM; in the assay with BaF3 [7] it was 54.5 nM; in assay [3], 1 nM; in assay [4], 1 nM. Besides, the IC50 in assay [1] worked out at 19 nM; in the assay with KM12 it was 5.7 nM; in [5] it was 25 nM.
Regarding `CNC(=O)c1n[nH]c2ccc(NCc3cc(F)ccc3OC(F)F)cc12`, in assay [1], the IC50 is 380 nM.
Consider `COc1ccc(F)cc1CNc1ccc2[nH]nc(C(=O)N3CCC(O)C3)c2c1` (stereo unspecified), for which, in assay [1], the IC50 was > 50000 nM.
On to `COc1ccc(F)cc1CNc1ccc2[nH]nc(C(=O)NC3CC3)c2c1`, for which the IC50 in [1] is 3650 nM.
Consider `CNC(=O)c1n[nH]c2ccc(NCc3cc(F)ccc3OCC(F)F)cc12`, for which the IC50 in assay [2] was determined as 3 nM.
As for `Fc1ccc(OCC(F)F)c(CNc2ccc3[nH]nc(-c4cnoc4)c3c2)c1`, the IC50 in assay [3] was found to be 5 nM; in assay [4], 8 nM; in assay [1], 35 nM; in assay [5] it was 49 nM.
For `COc1ccc(F)cc1CNc1ccc2[nH]nc(-c3cccc(F)c3)c2c1`, the IC50 in [1] was 360 nM.
Still for that read-out and setting: as for `COc1ccc(F)cc1CNc1ccc2[nH]nc(-n3cc(C(F)(F)F)cn3)c2c1`, the figure is 5700 nM; as for `COc1ccc(F)cc1CNc1ccc2[nH]nc(-c3cn[nH]c3)c2c1`, 110 nM; as for `COc1ccc(F)cc1CNc1ccc2[nH]nc(C(=O)N3CCC(F)(F)C3)c2c1`, 33100 nM.
Consider `CNC(=O)c1n[nH]c2ccc(NCc3cc(F)ccc3OC)cc12`, for which, in [1], the IC50 was found to be 92 nM.
Take `C[C@@H]1CCc2ncc(F)cc2[C@H]2CCCN2c2ccn3ncc(c3n2)C(=O)N1` [SELITRECTINIB]: the IC50 was 113 nM in the assay on BaF3 [6], > 10000 nM with MCF7, 12 nM in the assay with BaF3 [7] and 6.8 nM in the assay with KM12.
